System: STIL CCD peptide
Test: AUC sedimentation equilibrium (SE), oligomeric state
Type: physicochemical
Conditions: starting concentration 500 µM, triplicate, absorbance 280 nm, 95% confidence limits
Method: To quantify the dissociation constants of the possible monomer-dimer and dimer-tetramer transitions, we used fluorescence-based binding measurements. Using micro-scale thermophoresis, fluorescence measurements were taken at increasing concentrations of WT CCD peptide in a fixed background of 5 µM fluorophore-labelled peptide. […] Fitting the fluorescence data to the Hill equation provided a dissociation constant of 8 ± 2 µM and a cooperativity of 1.2 ± 0.3 (Figure 2B, Table S4). We interpret this as being for the monomer-dimer transition, and that the fluorescence measurements are insensitive to the higher-order oligomerization. […] To probe the possible dimer-tetramer transition, we turned to AUC-SE measurements with starting concentrations of 5, 10, and 20 µM of STIL WT CCD peptide (Figures S18 and S19). The equilibrated data were fitted first to a model for a single ideal species, which provided a species 2.9 × monomer mass (Table 1). […] It should be noted that the dimerization constant of the WT peptide was measured in the presence of 5% DMSO and using a fluorophore-labeled peptide, while the tetramerization constant was measured without DMSO and unlabeled peptides. The addition of the label and the presence of the DMSO, which was unavoidable for making the labeled peptide soluble, may have affected the measured dimerization constant. Thus, we avoid directly comparing the values obtained by the two methods.
Analytical ultracentrifugation (AUC) experiments were carried out using a Beckman Optima XL-A or XL-I analytical ultracentrifuge. Measurements were performed at 20 °C unless otherwise stated, using an An-50 or An-60 rotor, in Sodium Phosphate Buffer pH 6.8 (25 mM Na2PO4 with addition of 137 mM NaCl, pH measured using Jenway (TM) 3510 benchtop and adjusted using 1M HCl and 1M NaOH solutions). The partial specific volume ( υ¯ ) for each peptide were calculated in Sedfit using values from Cohn and Edsall. The buffer densities and viscosities were calculated using UltraScan III [54].
AUC sedimentation equilibrium (SE) experiments were run at multiple concentrations in a 6-Channel Epon charcoal-filled centerpiece. The samples were centrifuged at a range of speeds between 22–48 krpm. Absorbance scans across the radial range were recorded twice at each speed to ensure equilibration. Data were fitted to single, ideal species models or monomer-dimer equilibrium using Sedphat. In total, 95% confidence limits were obtained via Monte-Carlo analysis of the obtained fits. The quality of the fit was evaluated using the χ^2 parameter to observe which model best fit the data. Both fits of the data, where performed in Figures S18–S23 with their corresponding fit information.

mass, single species model, SE: 3038 ± 292 Da
AUC oligomeric state, SE (single species fit, 20 °C, pH 6.8): 0.79 ± 0.08 (500 µM) × monomer mass
Substance: L SPDAYRF LTEQDRQ LRLEQAQ IQRLLEA QSL-NH2 [STIL CCD718–749 L736E, STIL CCD peptide with destabilising L736E mutation; PDB 8oyk]

Reference: publication PMC10572602, “Molecular Mechanism of STIL Coiled-Coil Domain Oligomerization” (International Journal of Molecular Sciences, 2023)
